Experimental data published in US12521393B2, “Cytotoxicity targeting chimeras for CCR2-expressing cells” (GLAXOSMITHKLINE INTELLECTUAL PROPERTY DEVELOPMENT LIMITED, priority 2021, dated 2026).

What was measured:
[1] = test system: CCR2 expressing cells (CD11b+Ly6c+Hi) in peripheral blood; experiment: In vivo depletion assay, flow cytometry of peripheral blood (Example 201); parameters: species or system human CCR2 knock-in mice (C57 background); details: hCCR2 knock-in mice, IV 0.1 mpk compound + 10 mpk anti-cotinine antibody (SEQ ID NO: 13/14), peripheral blood at 48 hr
Outline: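 Mice dosed with compound formulated in saline/DMSO/PBS, with anti-cotinine antibody (rabbit variable region, mouse IgG2a Fc) where required, pre-incubated 30 min at room temperature. Terminal peripheral blood RBC-lysed, Fc-blocked, stained for CD45, CD3, CD11b, Ly6C, human CCR2 and 7AAD; percent depletion of CD11b+Ly6c+Hi cells determined by flow cytometry.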

[2] = test system: endogenous target monocytes in human PBMC; experiment: PBMC ex vivo monocyte depletion flow cytometry assay (Example 200); assay type: cell-based; details: with anti-cotinine antibody (SEQ ID NO: 11/12), 18-24 hours, EC50 in molar, read-out: Ex Vivo Depletion Assay pEC50 (converted)
Outline: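 Monocyte depletion is reported as pEC50, averaged or given individually across runs, and read by flow cytometry staining CD45, CD14 and CD4 with a viability dye. Compounds, diluted four-fold over 11 points from 1 mM DMSO stocks, were combined with 30 μg/mL Fc-enhanced anti-cotinine antibody and human PBMC, then incubated 18-24 h at 37° C.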

[3] = molecular target: anti-cotinine antibody (SEQ ID NO: 11/12, rabbit variable region with human IgG1 Fc DE mutation); experiment: SPR binding of anti-cotinine antibody to ARM compounds, Biacore T200, 37° C. (Example 202); details: SPR Biacore T200, 37° C., pH 7.4, antibody SEQ ID NO: 11/12 captured on protein A; Kd in molar
Outline: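 Antibody captured on a protein A chip; ARM compounds injected at 100 μL/min (200 s association, 2000 s dissociation), 3-fold 5-point series from 200 nM, at 37 °C in HEPES pH 7.4 buffer with 0.005% P20 and 1% DMSO. Double-referenced sensorgrams fit 1:1 for kon, koff, Kd (koff/kon), residence time (1/koff); pKd averaged across runs.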

SMILES	% Depletion of CCR2 expressing cells [1]	EC50 [2]	pKd of Antibody for ARM Compound of Formula (I) [3]
CC(C)N(C)[C@@H]1CC[C@H](N2CC[C@H](Nc3ncnc4ccc(C(F)(F)F)cc34)C2=O)[C@H](NC(=O)COCCNC(=O)CCOCCNC(=O)CCOCCNC(=O)[C@H]2CC(=O)N(C)[C@@H]2c2cccnc2)C1 [Example 47, (2S,3S)-N-(1-(((1R,2S,5R)-5-(Isopropyl(methyl)amino)-2-((S)-2-oxo-3-((6-(trifluoromethyl)quinazolin-4-yl)amino)pyrrolidin-1-yl)cyclohexyl)amino)-1,7,14-trioxo-3,10,17-trioxa-6,13-diazanonadecan-19-yl)-1-methyl-5-oxo-2-(pyridin-3-yl)pyrrolidine-3-carboxamide]	73%	0.316 nM	9.051
CC(C)N(C)[C@@H]1CC[C@H](N2CC[C@H](Nc3ncnc4ccc(C(F)(F)F)cc34)C2=O)[C@H](NC(=O)[C@H]2C[C@@H](NC(=O)CCOC[C@H]3CC[C@H](COCCNC(=O)[C@H]4CC(=O)N(C)[C@@H]4c4cccnc4)CC3)C2)C1 [Example 55, (2S,3S)-N-(2-(((1S,4S)-4-((3-(((1S,3S)-3-(((1R,2S,5R)-5-(Isopropyl(methyl)amino)-2-((S)-2-oxo-3-((6-(trifluoromethyl)quinazolin-4-yl)amino)pyrrolidin-1-yl)cyclohexyl)carbamoyl)cyclobutyl)amino)-3-oxopropoxy)methyl)cyclohexyl)methoxy)ethyl)-1-methyl-5-oxo-2-(pyridin-3-yl)pyrrolidine-3-carboxamide]	76.2%	0.126 nM	9.4085
CC(C)N(C)[C@@H]1CC[C@H](N2CC[C@H](Nc3ncnc4ccc(C(F)(F)F)cc34)C2=O)[C@H](NC(=O)[C@H]2CC[C@@H](NC(=O)CCCOC[C@H]3CC[C@@H](COCCNC(=O)[C@H]4CC(=O)N(C)[C@@H]4c4cccnc4)CC3)CC2)C1 [Example 61, (2S,3S)-N-(2-(((1S,4R)-4-((4-(((1S,4S)-4-(((1R,2S,5R)-5-(Isopropyl(methyl)amino)-2-((S)-2-oxo-3-((6-(trifluoromethyl)quinazolin-4-yl)amino)pyrrolidin-1-yl)cyclohexyl)carbamoyl)cyclohexyl)amino)-4-oxobutoxy)methyl)cyclohexyl)methoxy)ethyl)-1-methyl-5-oxo-2-(pyridin-3-yl)pyrrolidine-3-carboxamide]	92%	0.316 nM	9.558
CC(C)N(C)[C@@H]1CC[C@H](N2CC[C@H](Nc3ncnc4ccc(C(F)(F)F)cc34)C2=O)[C@H](NC(=O)COCCNC(=O)CNC(=O)CCOCCOCCNC(=O)[C@H]2CC(=O)N(C)[C@@H]2c2cccnc2)C1 [Example 80, (2S,3S)-N-(1-(((1R,2S,5R)-5-(Isopropyl(methyl)amino)-2-((S)-2-oxo-3-((6-(trifluoromethyl)quinazolin-4-yl)amino)pyrrolidin-1-yl)cyclohexyl)amino)-1,7,10-trioxo-3,13,16-trioxa-6,9-diazaoctadecan-18-yl)-1-methyl-5-oxo-2-(pyridin-3-yl)pyrrolidine-3-carboxamide]	89%	3.98 nM	9.109
CC(C)N(C)[C@@H]1CC[C@H](N2CC[C@H](Nc3ncnc4ccc(C(F)(F)F)cc34)C2=O)[C@H](Nc2c(NCCOCCOCCOCCOCCOCCNC(=O)[C@H]3CC(=O)N(C)[C@@H]3c3cccnc3)c(=O)c2=O)C1 [Example 85, (2S,3S)-N-(17-((2-(((1R,2S,5R)-5-(Isopropyl(methyl)amino)-2-((S)-2-oxo-3-((6-(trifluoromethyl)quinazolin-4-yl)amino)pyrrolidin-1-yl)cyclohexyl)amino)-3,4-dioxocyclobut-1-en-1-yl)amino)-3,6,9,12,15-pentaoxaheptadecyl)-1-methyl-5-oxo-2-(pyridin-3-yl)pyrrolidine-3-carboxamide]	57%	2 nM	9.6885
CC(C)N(C)[C@@H]1CC[C@H](N2CC[C@H](Nc3ncnc4ccc(C(F)(F)F)cc34)C2=O)[C@H](NC(=O)[C@H]2CC[C@@H](NC(=O)CCOCCNC(=O)COCCNC(=O)[C@H]3CC(=O)N(C)[C@@H]3c3cccnc3)CC2)C1 [Example 98, (2S,3S)-N-(2-(2-((2-(3-(((1S,4s)-4-(((1R,2S,5R)-5-(Isopropyl(methyl)amino)-2-((S)-2-oxo-3-((6-(trifluoromethyl)quinazolin-4-yl)amino)pyrrolidin-1-yl)cyclohexyl)carbamoyl)cyclohexyl)amino)-3-oxopropoxy)ethyl)amino)-2-oxoethoxy)ethyl)-1-methyl-5-oxo-2-(pyridin-3-yl)pyrrolidine-3-carboxamide]	88%	0.398 nM	9.0095
CC(C)N(C)[C@@H]1CC[C@H](N2CC[C@H](Nc3ncnc4ccc(C(F)(F)F)cc34)C2=O)[C@H](NC(=O)CCOCCNC(=O)[C@H]2CC[C@H](NC(=O)COCCNC(=O)[C@H]3CC(=O)N(C)[C@@H]3c3cccnc3)CC2)C1 [Example 108, (2S,3S)-N-(2-(2-(((1R,4S)-4-((2-(3-(((1R,2S,5R)-5-(Isopropyl(methyl)amino)-2-((S)-2-oxo-3-((6-(trifluoromethyl)quinazolin-4-yl)amino)pyrrolidin-1-yl)cyclohexyl)amino)-3-oxopropoxy)ethyl)carbamoyl)cyclohexyl)amino)-2-oxoethoxy)ethyl)-1-methyl-5-oxo-2-(pyridin-3-yl)pyrrolidine-3-carboxamide]	93%	0.398 nM	8.9855
CC(C)N(C)[C@@H]1CC[C@H](N2CC[C@H](Nc3ncnc4ccc(C(F)(F)F)cc34)C2=O)[C@H](NC(=O)CCOCCOCCNC(=O)NCCOCCOCCNC(=O)[C@H]2CC(=O)N(C)[C@@H]2c2cccnc2)C1 [Example 119, (2S,3S)-N-(20-(((1R,2S,5R)-5-(Isopropyl(methyl)amino)-2-((S)-2-oxo-3-((6-(trifluoromethyl)quinazolin-4-yl)amino)pyrrolidin-1-yl)cyclohexyl)amino)-10,20-dioxo-3,6,14,17-tetraoxa-9,11-diazaicosyl)-1-methyl-5-oxo-2-(pyridin-3-yl)pyrrolidine-3-carboxamide]	77%	1.58 nM	9.1735
CC(C)N(C)[C@@H]1CC[C@H](N2CC[C@H](Nc3ncnc4ccc(C(F)(F)F)cc34)C2=O)[C@H](NC(=O)[C@H]2CC[C@H](NC(=O)CCCOCCCCOCCNC(=O)[C@H]3CC(=O)N(C)[C@@H]3c3cccnc3)CC2)C1 [Example 121, (2S,3S)-N-(2-(4-(4-(((1R,4r)-4-(((1R,2S,5R)-5-(Isopropyl(methyl)amino)-2-((S)-2-oxo-3-((6-(trifluoromethyl)quinazolin-4-yl)amino)pyrrolidin-1-yl)cyclohexyl)carbamoyl)cyclohexyl)amino)-4-oxobutoxy)butoxy)ethyl)-1-methyl-5-oxo-2-(pyridin-3-yl)pyrrolidine-3-carboxamide]	69%	1.26 nM	9.332
CC(C)N(C)[C@@H]1CC[C@H](N2CC[C@H](Nc3ncnc4ccc(C(F)(F)F)cc34)C2=O)[C@H](NC(=O)CCNC2CCC3(CC2)CCN(CCCNC(=O)[C@H]2CC(=O)N(C)[C@@H]2c2cccnc2)CC3)C1 [Example 138, (2S,3S)-N-(3-(9-((3-(((1R,2S,5R)-5-(Isopropyl(methyl)amino)-2-((S)-2-oxo-3-((6-(trifluoromethyl)quinazolin-4-yl)amino)pyrrolidin-1-yl)cyclohexyl)amino)-3-oxopropyl)amino)-3-azaspiro[5.5]undecan-3-yl)propyl)-1-methyl-5-oxo-2-(pyridin-3-yl)pyrrolidine-3-carboxamide]	74.67%	0.158 nM	9.0865
CC(C)N(C)[C@@H]1CC[C@H](N2CC[C@H](Nc3ncnc4ccc(C(F)(F)F)cc34)C2=O)[C@H](NC(=O)[C@H]2CC[C@@H](NC(=O)COCCNC(=O)CCOCCNC(=O)[C@H]3CC(=O)N(C)[C@@H]3c3cccnc3)CC2)C1 [Example 152, (2S,3S)-N-(2-(3-((2-(2-(((1S,4s)-4-(((1R,2S,5R)-5-(Isopropyl(methyl)amino)-2-((S)-2-oxo-3-((6-(trifluoromethyl)quinazolin-4-yl)amino)pyrrolidin-1-yl)cyclohexyl)carbamoyl)cyclohexyl)amino)-2-oxoethoxy)ethyl)amino)-3-oxopropoxy)ethyl)-1-methyl-5-oxo-2-(pyridin-3-yl)pyrrolidine-3-carboxamide]	82%	1.26 nM	9.111
